Data from ChEMBL document CHEMBL1149774, “Synthesis of N-(5,7-diamino-3-phenyl-quinoxalin-2-yl)-3,4,5-substituted anilines and N-[4[(5,7-diamino-3-phenylquinoxalin-2-yl)amino]benzoyl]-l-glutamic acid diethyl ester: evaluation of in vitro anti-cancer and anti-folate activities” (Eur J Med Chem, 2008).
Activity calls are given as the source filed them. No cut-off for these calls is given here.

Key:
[1] = tested on: HT-29; test: Growth inhibition of human HT29 cells after 48 hrs by SRB staining method; assay type: functional; details: HT-29, 48 h; for TGI: read-out: pTGI (converted)
[2] = target: Thymidylate synthase (Escherichia coli) (UniProt C3SWJ7); test: Inhibition of Escherichia coli thymidylate synthase at 10 uM
[3] = target: Thymidylate synthase (Homo sapiens, UniProt P04818); test: Inhibition of human thymidylate synthase at 10 uM
[4] = target: Thymidylate synthase (Escherichia coli, UniProt C3SWJ7)
Chain of Thymidylate synthase (Escherichia coli, UniProt C3SWJ7) (C3SWJ7 whole entry): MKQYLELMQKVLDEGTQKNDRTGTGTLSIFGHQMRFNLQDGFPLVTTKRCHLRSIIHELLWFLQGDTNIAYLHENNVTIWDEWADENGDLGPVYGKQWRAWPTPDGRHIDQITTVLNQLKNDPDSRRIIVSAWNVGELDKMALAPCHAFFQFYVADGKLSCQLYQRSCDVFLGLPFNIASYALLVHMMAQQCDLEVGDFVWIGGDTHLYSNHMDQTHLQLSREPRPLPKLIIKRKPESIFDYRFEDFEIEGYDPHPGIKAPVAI

Chain of Thymidylate synthase (Homo sapiens, UniProt P04818) (P04818 2-313 limits assumed): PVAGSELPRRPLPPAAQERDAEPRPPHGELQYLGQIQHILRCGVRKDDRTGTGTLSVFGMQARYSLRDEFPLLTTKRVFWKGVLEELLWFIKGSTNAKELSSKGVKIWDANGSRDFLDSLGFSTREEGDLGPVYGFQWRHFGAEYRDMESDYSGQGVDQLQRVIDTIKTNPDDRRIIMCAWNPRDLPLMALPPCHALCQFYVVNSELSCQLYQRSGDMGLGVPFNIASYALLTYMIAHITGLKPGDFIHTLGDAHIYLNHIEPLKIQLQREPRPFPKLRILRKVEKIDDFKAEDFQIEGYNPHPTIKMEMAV
Chain of Thymidylate synthase (Escherichia coli) (C3SWJ7 1-264): as the sequence (C3SWJ7 whole entry) above

| SMILES | GI50 [1] | LC50 [1] | TGI [1] | Activity [2] | Activity [3] | Ki [4] |
| --- | --- | --- | --- | --- | --- | --- |
| COc1ccc(Nc2nc3cc(N)cc(N)c3nc2-c2ccccc2)cc1OC | 25.1 µM | > 100 µM | 52.5 µM | inactive | inactive |  |
| CCOC(=O)CCC(NC(=O)c1ccc(Nc2nc3cc(N)cc(N)c3nc2-c2ccccc2)cc1)C(=O)OCC (stereo not given) |  |  |  | inactive |  |  |
| Nc1cc(N)c2nc(-c3ccccc3)c(Nc3ccc(F)cc3)nc2c1 | 18.6 µM |  | 35.5 µM |  | inactive | 70 µM |
| Nc1cc(N)c2nc(-c3ccccc3)c(Nc3ccc(Cl)c(Cl)c3)nc2c1 |  |  |  |  |  | 3 µM |
| COc1cc(Nc2nc3cc(N)cc(N)c3nc2-c2ccccc2)cc(OC)c1OC | 33.1 µM | 74.1 µM | 34.7 µM |  |  |  |
| COc1cc(Nc2nc3cc(N)cc(N)c3nc2-c2ccccc2)cc(OC)c1 | 27.5 µM | > 100 µM | > 100 µM |  |  |  |
| COc1ccc(Nc2nc3cc(N)cc(N)c3nc2-c2ccccc2)cc1 | 24 µM | 89.1 µM | 42.7 µM |  |  |  |
